Results taken from patent US11541059B2, “Heterocyclic compounds and uses thereof” (Infinity Pharmaceuticals, Inc., priority 2014, dated 2023).

Assays:
Cyps = test: Time dependent Cyp inhibition; format: in vitro ADME
[1] = Pharmacokinetics of Compound BB, single and repeat oral dose; format: in vivo, mouse; settings: female CB6F1 mice, 2, 7.5, 15 mg/kg PO
Procedure: Animals were weighed daily prior to dosing. […] On subsequent dosing days, the animals' condition was noted prior to dosing; the animals were observed within 4 hours of dosing, and at the end of the day.
Samples were collected at pre-dose 0.25, 0.5, 1, 2, 4, 6 and 24 h following the first dose on day 1 and pre-dose (trough), 0.25, 0.5, 1, 2, 4, 6 and 24 h following the final dose on day 3. Animals received a single oral dose daily for 3 consecutive days. Blood was collected by retro-orbital bleeding for all time points on day 1. All other blood sampling was collected by a cardiac puncture. Blood was collected into K2EDTA tubes and placed on wet ice. Within 15 min of collection, the sample was centrifuged at 10,000 rpm at 4° C. for 10 min in a bench top centrifuge and the plasma transferred to a new microcentrifuge tube.

Human hep viability = format: cell-based; settings: human hepatocytes
[2] = system: immune gene expression in KPC tumors; test: RNA expression profiling (TLDA) of KPC pancreatic tumors; format: in vivo, mouse; settings: 3 mg/kg, with or without PDL-1 antibody
Procedure: RNA expression profiling was performed for immuno-phenotyping with a Tagman low density array (TLDA).
For mouse tumors, snap frozen samples were powdered with a Genogrinder at liquid nitrogen temperatures and RNA was isolated with Trizol. Next, the sample was cleaned-up using Qiashredder, and then using a RNeasy kit.
CT values were used for analysis. For each sample Si and each gene, the following values were calculated: dCT(Si,gene)=CT(Si,gene)−CT(Si,ACTB) ddCT(Si,gene)=dCT(Si,gene)−median(dCT(vehicle treated samples,gene)) RQ(Si,gene)=2^(−ddCT(Si,gene))
This produced a matrix of RQ values: 48 genes (rows)×39 samples (cols).
The analysis used R package Non-negative Matrix Factorization (NMF) with rank=3 and the “lee” algorithm.

[3] = system: TAMs / CD206 in LLC tumor brei; test: Flow cytometry of tumor-associated myeloid cells, LLC tumor brei; format: in vivo, mouse
Procedure: (§1) Flow cytometry was performed to obtain a more extensive cellular subset analysis. In particular, the study examined T cell vs. Myeloid cells, Myeloid cell subsets, Regulatory vs. effector T cells, and Tumor markers vs. WBC (e.g., PD-L1 expression on tumor).
(§2) Different populations of tumor-associated myeloid cells can be identified by flow cytometry, e.g., monocytic immature myeloid cells (iMC),Granulocytic iMCs/Neutrophils, Tumor Associated Macrophages (TAMs), and Granulocytic MDSCs. The different populations, and panels for detecting MDSCs, are described in Cancer Discovery 2011; 1:54-67. Tumors may vary in their myeloid cell composition.

[4] = system: LPS induced neutrophil influx in BALF; test: LPS-induced neutrophilia, oral administration; format: in vivo; settings: rat, p.o., 4 hours post-LPS challenge
Text: This study also includes assessment of the exposure to the compounds in plasma and lung tissues.

[5] = system: CXCL12-induced pAKT in T-cells; test: CXCL12-induced pAKT assay in T-cells; format: cell-based, human; settings: FIG. 9
Text: There was a tight correlation between the EC50s observed in the CXCL12-induced pAKT assay and the T-cell migration assay.

[6] = system: bone marrow cells differentiating into MDSCs (VEGF, ARG1); test: Myeloid Derived Suppressor Cell differentiation assay; format: cell-based; settings: FIG. 24A, 24B
Procedure: A similar experiment was performed on bone marrow cells differentiating into MDSCs.

[7] = system: differentiation of myeloid cells into M2 TAMs; test: Murine M2 TAM differentiation (ARG1); format: cell-based, mouse; settings: FIG. 22A, 22B
Text: High ARG1 (Arginase-1) levels indicate that myeloid cells are differentiating into M2 macrophages, so lower ARG1 levels relative to a control indicate interference with differentiation into M2 macrophages. Expression of Arginase-1 depletes the tumor microenvironment of arginine, thereby promoting T cell death and NK cell inhibition. Schmid et. al., Proceedings: AACR 103rd Annual Meeting 2012, Cancer Research: Apr. 15, 2012; Volume 72, Issue 8, Supplement 1. […] M2 TAMs promote cancer cell survival (FIG. 23).

4T1 breast cancer = test: Subcutaneous 4T1 breast cancer model; format: in vivo; settings: co-administration with docetaxel, paclitaxel, or 5-FU
Lewis Lung Carcinoma = Lewis Lung Carcinoma model / LLC tumor brei model; format: in vivo, mouse
[8] = system: collagen induced arthritis; test: Rat collagen induced arthritis (CIA) model; settings: FIG. 1
[9] = system: CD11b+ myeloid cells in 4T1 tumors; test: Immunohistochemistry of tumor immune infiltrates (CD11b, CD68), 4T1; format: in vivo, mouse; settings: vs vehicle, day 13
Procedure: Immunohistochemistry was performed to determine the distribution of immune cells within the tumor. In particular, CD11b myeloid cells were examined, as were regulatory vs. effector T cells (CD3, CD4, CD8, FoxP3). Briefly, IHC for CD11b or CD68+ was performed as follows. CD11b antibodies were available from Abcam, clone I-70, Catalog #ab 8878. CD68 antibodies were available from Abcam, clone FA-11, catalog #ab 53444. Tissues were fixed in cold methanol, air-dried, and then stained using a Res IHC Omni-UltraMap HRP XT protocol.
Without being bound by a particular theory, the decrease in the pro-tumorigenic tumor associated myeloid cells can result in activation of cytotoxic T-cells and anti-tumor immunity. […] When the images were quantified as CD11b+ cells per total viable cells (FIG. 37E), a Student t-Test p-value of 0.0355 was obtained when comparing the Compound BB-treated cells to controls. When the images were quantified as CD11b+ stained area per total visible area (FIG. 37F), a Student t-Test p-value of 0.0441 was obtained when comparing the Compound BB-treated cells to controls. […] When the images were quantified as CD11b+ cells per total viable cells (FIG. 37G), a Student t-Test p-value of 0.0864 (d16) or 0.3967 (d22) was obtained when comparing the Compound BB-treated cells to controls. […]

[10] = system: monocytic iMCs in CT26 subcutaneous tumors; test: Flow cytometry of tumor-associated myeloid cells, CT26; format: in vivo, mouse; settings: FIG. 38B
Procedure: as §1, §2

With `C[C@H](NC(=O)c1c(N)nn2cccnc12)c1cc2cccc(C#Cc3cnn(C)c3)c2c(=O)n1-c1ccccc1` [Compound BB] the “Time dep Cyp Inhibition @ 10 uM” value (Cyps) was “Neg”, the “Stability in serum (24-hour unbound plasma concentration time course)” value [1] was “good stability in serum” and the IC50 (Human hep viability) was 10 to 25 µM. For the same molecule, the “M2 macrophage markers VEGF and ARG-1 (RNA)” value [2] was “trended towards reduction”, the “Infiltrating TAMs” value ([3]; FIG. 38A) was “the number of infiltrating TAMs was decreased” and the “CD206 staining (M2 polarized suppressive macrophages)” value ([3]; FIG. 39) was “CD206 staining was reduced”. The “Neutrophil in bronchoalveolar lavage fluid (BALF)” value [4] was “reduced neutrophil”, the “Inhibition of CXCL12-induced pAKT in T-cells” value [5] was “inhibited CXCL12-induced pAKT in T-cells more strongly than a PI3K-δ inhibitor” and the “VEGF and ARG1 in MDSC differentiation assay” value [6] was “suppressed both VEGF (FIG. 24A) and ARG1 (FIG. 24B)”. The “M2 TAM differentiation (ARG1 levels)” value [7] was “inhibited M2 TAM differentiation much more effectively than PI3K-δ inhibitor”, the tumor growth (4T1 breast cancer) was “further reduction in tumor growth” and the “CD206+ M2 polarized suppressive macrophages” value (Lewis Lung Carcinoma) was “reduces”. The TAMs (Lewis Lung Carcinoma) was “decreased”, the “Mean ankle diameter, day 9 to day 17” value [8] was “has therapeutic effects” and the “CD11b+ myeloid cell staining in viable regions of 4T1 tumors” value [9] was “decrease in CD11b+ myeloid cell staining”. The “Monocytic iMCs” value [10] was “monocytic iMCs were decreased”.
